Reference: ChEMBL document CHEMBL2028040, “Malaria Box”

Assays:
[1] = system: Plasmodium falciparum; assay: MMV: Inhibition of Plasmodium falciparum 3D7 (EC50).; assay type: functional, organism-based
[2] = system: Trypanosoma brucei brucei; assay: MMV: Inhibition of Trypanosoma brucei brucei (Squib 427) (HAT in vitro).; assay type: functional, organism-based
[3] = MMV: Cytotoxicity against human fibroblasts (MRC-5) cells.; details: MRC-5 cells (human fibroblasts)
[4] = system: Trypanosoma cruzi; assay: MMV: Inhibition of Trypanosoma cruzi (Tulahuen C4 LacZ) (Chagas in vitro).; assay type: functional, organism-based
[5] = system: Plasmodium falciparum; assay: MMV: Inhibition of Plasmodium falciparum K1 (EC50).; assay type: functional, organism-based
[6] = system: Leishmania infantum; assay: MMV: Inhibition of Leishmania infantum (MHOM/MA/BE/67) in vitro.; assay type: functional, organism-based
[7] = system: Plasmodium falciparum; assay: MMV: Inhibition of Plasmodium falciparum 3D7 at 5uM compound concentration.; assay type: functional
[8] = system: Trypanosoma brucei rhodesiense; assay: MMV: Inhibition of Trypanosoma brucei rhodesiense (STIB 900) (HAT in vitro).; assay type: functional, organism-based

SMILES	EC50 [1] [µM]	IC50 [2] [µM]	IC50 [3] [µM]	IC50 [4] [µM]	EC50 [5] [µM]	IC50 [6] [µM]	inhibition at 5 µM [7] [%]	IC50 [8] [µM]
c1ccc(/C2=N/c3ccccc3/N=C(/c3ccccc3)c3ccccc32)cc1	0.661	16.5	> 32	26.1	1.1	16.6	99	4.52
O=C(CCc1ccccc1)c1ccccc1OCC(O)CN1CCCCC1 (stereo not given)	0.676	16.1	> 32	16.9	0.182	17.3	97	4.7
COC(=O)c1ccc(C2C3=C(O)CC(c4ccc(F)cc4)CC3=Nc3ccccc3N2C(=O)c2ccccc2)cc1 (stereo not given)	0.327	4.18	> 32	> 32	0.724	1.59	98	1.72
CCOc1cc2c(cc1OCC)C(c1cc(OC)c(O)cc1Cl)NCC2 (stereo not given)	0.37	15.2	> 32	14.6	0.114	> 32	98	16.2
Oc1ccccc1CN1CCN(C(c2ccccc2)c2ccccc2)CC1	0.611	15.6	> 32	4.1	0.203	11.9	97	12.5
Brc1ccc(Nc2nc3ccccc3nc2Nc2ccc(Br)cc2)cc1	1.06	4.09	5.88	3.52	0.497	4.06	98	1.32
OC(CNC1CCCCC1)Cn1c2ccccc2c2ccccc21 (stereo not given)	0.293	4.15	> 32	> 32	1.17	16.6	93	4.03
Cc1ccc(CSCc2ccc(C(=O)NC3CC3)o2)cc1	0.635	> 32	> 32	> 32	1.13	> 32	97	> 32
Cc1cc(Nc2ccc(OCc3ccccc3)cc2)nc2cc(O)ccc12	0.684	11.9	14	4.39	0.52	16.2	96	3.54
COc1cc(-c2nc(-c3ccc(Sc4ccccc4)cc3)c(-c3ccccc3)[nH]2)cc(OC)c1O	0.35	3.37	8.45	11.1	0.976	16.2	97	3.61
Cc1ccc(-c2cc3nc4c(c(O)n3n2)CCCC4)cc1	0.396	15.5	> 32	> 32	1.12	> 32	73	3.73
O=C1c2ccc3c4c(ccc(c24)C(=O)N1CCCCO)C(=O)N(CCCCO)C3=O	0.795	2.84	13.8	2.07	0.858	1.01	97	1
Cc1ccccc1OCCSc1nc2ccc(NC(=O)c3cccs3)cc2s1	0.697	3.94	> 32	4.65	1.04	17.3	96	2.77
CC1CCN(Cc2c(O)ccc3cc(-c4nc5ccccc5s4)c(=O)oc23)CC1	1.13	18.4	23.2	18	0.47	19	91	< 0.125
c1ccc2cc3c(Nc4ccc(N5CCOCC5)cc4)ccnc3cc2c1	0.251	0.332	> 32	1.29	0.516	> 32	97	0.346
CC(C)CCNCC(O)Cn1c2ccccc2c2ccccc21 (stereo not given)	0.473	0.931	16.2	6.73	0.21	4	97	1
COc1ccc(C2C(C(=O)Nc3cccc(OC)c3)c3ccccc3C(=O)N2C2CCCCC2)cc1 (stereo not given)	1.18	4.06	> 32	15.6	1.6	6.35	97	3.7
O=C(Nc1ccc(C23CC4CC(CC(c5ccccc5)(C4)C2)C3)cc1)c1cccs1	0.826	> 32	> 32	> 32	1.27	> 32	96	> 32

SMILES	EC50 [1] [µM]	IC50 [2] [µM]	IC50 [3] [µM]	IC50 [4] [µM]	EC50 [5] [µM]	IC50 [6] [µM]	inhibition at 5 µM [7] [%]	IC50 [8] [µM]
CN1C=C(c2ccc3ccccc3n2)C(c2c[nH]c3ccccc23)c2ccccc21 (stereo not given)	0.552	3.77	> 32	0.934	1.06	16.2	95	0.979
COc1ccccc1CNC(=O)CCn1c(=O)[nH]c2ccsc2c1=O	0.14	> 32	> 32	> 32	0.15	> 32	67	> 32
COc1ccc(OC)c(C2C3=C(CC(C)(C)CC3=O)N(c3ccc(Cl)c(Cl)c3)C3=C2C(=O)CC(C)(C)C3)c1	0.912	16.6	> 32	> 32	1.07	> 32	90	16.2
Cc1cccc(N2C(=O)C3C(C2=O)C2(c4ccccc4)C(=O)C3(c3ccccc3)C(c3ccc4c(c3)OCO4)=C2c2ccc3c(c2)OCO3)c1 (stereo not given)	0.304	> 32	> 32	> 32	0.261	> 32	94	> 32
COc1ccc(C(C)=O)cc1N1C(=O)C2C(C1=O)C1(c3ccccc3)C(=O)C2(c2ccccc2)C(c2ccc(C)cc2)=C1c1ccc(C)cc1 (stereo not given)	0.179	> 32	> 32	> 32	0.224	> 32	96	> 32
Cc1ccc(F)cc1NC(=O)c1cc(Cl)ccc1Nc1ccccc1	0.539	> 32	> 32	> 32	0.507	> 32	99	> 32
OC1=C2C(=Nc3ccccc3SC2c2ccc(Br)cc2)c2ccccc21 (stereo not given)	0.567	4.09	> 32	3.62	0.961	4.32	97	2.66
Clc1ccc2c(N3CCCC3)ccnc2c1	0.944	16	> 32	> 32	1.29	> 32	97	14.4
COc1cc2c3cc1Oc1c(OC)c(OC)cc4c1C(Cc1ccc(O)c(c1)Oc1ccc(cc1)CC3N(C)CC2)N(C)CC4 (stereo not given)	1.27	14.5	4.42	3.67	1.19	12	96	4.59
CCOC(=O)C1CCN(C(=O)CN2C(=O)c3ccccc3C2c2c[nH]c3ccccc23)CC1 (stereo not given)	1.18	16.1	> 32	14.7	2.67	> 32	98	13.8
Cc1ccc(N2C3c4ccccc4N(S(=O)(=O)c4ccc(C)cc4)C2c2ccccc2N3S(=O)(=O)c2ccc(C)cc2)cc1	0.0248	> 32	> 32	> 32	0.0276	16.2	97	16.5
CCOc1c(Br)cc(C2C(C(=O)OC)=CN(C)C=C2C(=O)OC)cc1OC	0.512	> 32	> 32	> 32	1.07	> 32	96	30.9
COc1ccccc1N1C(=N)SC(=Cc2ccc(OCc3ccccc3F)cc2)C1=O	0.478	10	> 32	16.3	0.824	25.4	95	4.12
CCN(CC)S(=O)(=O)c1ccc(-c2csc(Nc3ccc(C)c(C)c3)n2)cc1	0.641	> 32	> 32	> 32	1.04	16.2	97	> 32
CCOC(=O)C1=CN(C)C=C(C(=O)OCC)C1c1cc(Br)c(OCC)c(OC)c1	0.518	15.7	> 32	13.6	0.945	> 32	97	13.9
CC(C)(C)c1ccc(C2CC3=Nc4ccccc4N(C(=O)c4ccccc4Cl)C(c4ccc(F)cc4)C3=C(O)C2)cc1 (stereo not given)	0.947	4.25	> 32	> 32	0.824	17.3	96	1.11
CCCCc1c(CCC)c(=N)c2ccccc2n1C	0.716	4	19.3	0.375	1.58	6.35	77	3.92
